Test results from PubChem BioAssay AID624167 (Sanford-Burnham Center for Chemical Genomics, 2012).
The source made the active and inactive calls.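 Rule for the calls: active = mean IC50 for reducing PEG3 promoter reporter signal at or below a set limit, with IC50 above the limit in both counter screens; inactive = the rest, including counter screen hits.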

What was measured:
PEG-3 [1] = biological target: PEG-3 (UniProt Q6IN02); assay: Peg3 promoter luciferase inhibitors, potency, dose response, cell-based, HeLa, CREF/GAPDH counter-screen panel (AID 624167); details: HeLa PEG-Prom luciferase reporter, overnight, CREF/GAPDH counter-screens, mean of runs
PEG-3 [2] = assay: as above; details: HeLa PEG-Prom luciferase reporter, overnight, CREF/GAPDH counter-screens
[3] = run 1, dose range 1, individual replicate IC50 per panel
[4] = run 2, dose range 1, individual replicate IC50 per panel

PEG-3 (UniProt Q6IN02), sequence (Q6IN02 whole entry, looked up): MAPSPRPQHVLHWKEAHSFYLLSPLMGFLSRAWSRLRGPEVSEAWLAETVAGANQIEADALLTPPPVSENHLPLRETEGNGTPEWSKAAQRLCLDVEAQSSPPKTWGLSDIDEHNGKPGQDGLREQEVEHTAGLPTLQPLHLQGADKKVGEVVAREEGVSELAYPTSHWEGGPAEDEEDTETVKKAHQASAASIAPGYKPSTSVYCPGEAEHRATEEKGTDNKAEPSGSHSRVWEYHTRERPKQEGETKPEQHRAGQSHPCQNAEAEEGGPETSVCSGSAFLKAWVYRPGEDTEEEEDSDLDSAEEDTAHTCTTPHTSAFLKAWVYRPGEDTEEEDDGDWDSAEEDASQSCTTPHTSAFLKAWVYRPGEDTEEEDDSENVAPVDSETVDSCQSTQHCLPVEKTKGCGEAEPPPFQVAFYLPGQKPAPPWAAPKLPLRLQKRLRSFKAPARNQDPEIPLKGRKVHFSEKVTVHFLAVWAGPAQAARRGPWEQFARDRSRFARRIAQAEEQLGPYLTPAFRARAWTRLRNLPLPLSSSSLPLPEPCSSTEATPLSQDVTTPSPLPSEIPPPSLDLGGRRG

Compound	IC50 (PEG-3 [1])	IC50 (PEG-3 [2]; [3])	IC50 (PEG-3 [2]; [4])
COc1cccc2c1C(=N)c1c(O)c3c(c(O)c1C2=O)CC(O)(C(C)=O)CC3OC1CC(N)C(O)C(C)O1 (centres undefined)	11.6 µM	15.7 µM	7.56 µM
CN(C)CCCN(C(=O)c1ccc(C(=O)c2ccccc2)cc1)c1nc2cc3c(cc2s1)OCO3	16 µM	18.8 µM	13.3 µM
O=c1c2ccccc2nc(CSc2ncnc3nc[nH]c23)n1-c1ccc(Cl)c(Cl)c1	inactive	8.77 µM	> 100 µM
Cc1nc(N2CCN(c3ccccc3O)CC2)c2c(-c3ccccc3)csc2n1	inactive	29 µM	24.6 µM
COCC(C)n1c(C)cc(C(=O)COC(=O)c2cccn2C)c1C (centres undefined)	inactive	32.8 µM	> 100 µM
O=C(CSc1nc(Nc2ccccc2)nc(N2CCOCC2)n1)Nc1cc(Cl)ccc1O	13.7 µM	13 µM	14.5 µM
CNCC[C@@H](Oc1ccc(C(F)(F)F)cc1)c1ccccc1	inactive	27 µM	53.2 µM
CC(=O)Nc1ccc(S(=O)(=O)N(Cc2cccnc2)Cc2cc3ccccc3[nH]c2=O)cc1	> 100 µM (inactive)	> 100 µM	> 100 µM
O=Cc1cn(Cc2ccc([N+](=O)[O-])cc2)c2ccccc12	> 100 µM (inactive)	> 100 µM	> 100 µM
O=C1/C(=C/c2ccccc2Cl)SC(=S)N1CCCC(=O)N(CCO)c1ccccc1	17.8 µM	18.9 µM	16.7 µM
CCN1CCN(c2ccc(S(=O)(=O)N3CCOCC3)cc2NC(=O)/C=C/c2ccc([N+](=O)[O-])cc2)CC1	inactive	19 µM	78.3 µM
CCN(Cc1ccccc1)S(=O)(=O)c1ccc(C(=O)N(CCCN(C)C)c2nc3cc4c(cc3s2)OCO4)cc1	17.8 µM	19.6 µM	16 µM
COc1cccc(-c2sc3ccc(OC)cc3c2-c2ccc(OCCN(C)C)cc2)c1	15.5 µM	15.7 µM	15.2 µM
CC(NC(=O)c1ccc([N+](=O)[O-])o1)C12CC3CC(CC(C3)C1)C2 (centres undefined)	inactive	32.3 µM	14.9 µM
CCN1CCN(Cc2ccc(NC(=O)c3cc(NC(=O)c4ccno4)cc(OC)c3)cc2C(F)(F)F)CC1	inactive	40.6 µM	45.3 µM
O=S(=O)(Nc1cccc2ncccc12)c1cccs1	13.2 µM	17.5 µM	8.93 µM
CCCCCCSc1cc(-c2nc3ccc(C)cn3c2NCCCC)ccc1OC	16.2 µM	21.4 µM	11 µM
COc1ccc(-c2cc(C(=O)N3CCN(c4ccccc4F)CC3)c3ccccc3n2)c(OC)c1	11 µM	9.03 µM	13 µM
Cc1ccc(S(=O)(=O)N2CCCCC2)cc1C(=O)N(C)CC(=O)Nc1ccc(Cl)c(C(F)(F)F)c1	inactive	45.1 µM	42.7 µM
O/N=C(\c1ccc(Cl)cc1Cl)c1ncc(C(F)(F)F)cc1Cl	inactive	32.4 µM	29.9 µM
CCN1CCN(c2nc(Nc3cc(OC)ccc3OC)nc(Nc3cc(OC)ccc3OC)n2)CC1	17.5 µM	17 µM	18.1 µM
O=C(C=Cc1ccccn1)c1ccccc1	16.6 µM	20.7 µM	12.5 µM
O=C1c2ccccc2C(=O)C12OC2c1ccc(Cl)cc1Cl (centres undefined)	inactive	28.4 µM	14.6 µM
Cc1ccc2cccc(OCC(=O)Nc3cccc(S(=O)(=O)N4CCCC4)c3)c2n1	inactive	22.3 µM	33.9 µM

Compound	IC50 (PEG-3 [1])	IC50 (PEG-3 [2]; [3])	IC50 (PEG-3 [2]; [4])
Cc1nc(N2CCN(S(=O)(=O)c3ccccc3C#N)CC2)c2c(-c3ccccc3)csc2n1	> 100 µM (inactive)	> 100 µM	> 100 µM
CCC1(c2ccccc2)NC(=O)N(CC(=O)Nc2cc(S(=O)(=O)N3CCCCCC3)ccc2OC)C1=O (centres undefined)	13.7 µM	13.9 µM	13.5 µM
COc1ccc(-c2nc3c(C(=O)NCCN(C)C)cccc3c3ccccc23)cc1	15 µM	17.3 µM	12.8 µM
CCN(CC)CCSc1nnc2c3cc(C)ccc3n(Cc3ccccc3)c2n1	inactive	30.6 µM	93.6 µM
CC(=O)Nc1cccc(-c2ccnc3c2CC(C)(C(=O)Nc2cccc(OC(F)(F)F)c2)O3)c1 (centres undefined)	17.3 µM	8.81 µM	25.7 µM
Cc1cc(C(=O)COC(=O)C2=COCCO2)c(C)n1-c1ccccc1	11.8 µM	11.1 µM	12.5 µM
O=C(Cc1csc(Nc2nc(=S)[nH]c3ccccc23)n1)NCc1ccccc1Cl	> 100 µM (inactive)	> 100 µM	> 100 µM
O=C(C[n+]1ccc(-c2cc(C(=O)Nc3cccc(C(F)(F)F)c3)c3ccccc3n2)cc1)c1cccc([N+](=O)[O-])c1	18.6 µM	23.4 µM	13.8 µM
CN(C)C(=O)c1cccc(-c2cnc3c(NC=O)cc(-c4cccc(C(F)(F)F)c4)cn23)c1	16 µM	11.6 µM	20.3 µM
O=C(CN1CCCC1)Nc1ccc(-c2nc3cc(NC(=O)CN4CCCC4)ccc3o2)cc1	> 100 µM (inactive)	> 100 µM	> 100 µM
Cc1ccc2cc3c(N)c4c(C)ccc(C)c4nc3nc2c1	inactive	> 100 µM	17.1 µM
N#Cc1ccc(Cn2cc(C=O)c3ccccc32)cc1	inactive	31.6 µM	24.6 µM
CCCCCCOc1ccc(/C(C)=N/NC2=NCCN2)cc1	11.9 µM	15.7 µM	8.2 µM
COc1ccccc1C1c2ccc3ccccc3c2Oc2ncn(CCCO)c(=N)c21 (centres undefined)	15.8 µM	17.4 µM	14.2 µM
Fc1ccc([C@@H]2CCNC[C@H]2COc2ccc3c(c2)OCO3)cc1	19.5 µM	20 µM	19 µM
CCC(C)Sc1ccc(-c2nc3ccccn3c2NCc2ccccc2)cc1OC (centres undefined)	inactive	38.3 µM	20.2 µM
CC(=O)c1cccc(NC(=O)c2cccc3c(-c4cccnc4)coc23)c1	inactive	25.6 µM	> 100 µM
Cc1ccc(N(Cc2cc(=O)[nH]c3ccccc23)C(=O)CCl)c(C)c1	inactive	22.9 µM	29.4 µM
CC[n+]1c(-c2ccccc2)c2cc(N)ccc2c2ccc(N)cc21	15.7 µM	7.7 µM	23.6 µM
N=c1c2c(-c3ccccc3)c(-c3ccccc3)n(Cc3ccccc3)c2ncn1CCO	14.7 µM	18.8 µM	10.6 µM
CC(=O)c1ccc(Nc2nc(C(N)Cc3ccc(Cl)cc3)cs2)cc1 (centres undefined)	inactive	25.7 µM	15.1 µM
COc1cccc(Nc2nc(C(N)C3CCCCC3)cs2)n1 (centres undefined)	inactive	21.8 µM	47.6 µM
COc1ccc(/C=C/C(=O)c2ccc3c(c2)OCCO3)cc1[N+](=O)[O-]	17 µM	17.2 µM	16.7 µM
COC(=O)c1c(NC(=O)c2ccc([N+](=O)[O-])o2)sc2c1CCN(C(C)C)C2	15.5 µM	19.2 µM	11.8 µM
